The subject of one assay is picrotoxin. The assay can be described thus: Anti-picrotoxin action (picrotoxin-induced lethality in mice). In kind it is in vivo, male dd mice. To be noted: for ED50: Mus musculus, po, 0.5 h, read-out: Anti-picrotoxin-lethal action, ED50. The protocol:
1. Anti-picrotoxin Action
Groups each of 7-14 male dd mice were used. A test compound was orally administered and 60 minutes thereafter, picrotoxin (5 mg/kg) was administered subcutaneously. The 50% anti-lethal dose (ED50) was calculated from the servival rate within 30 minutes.

A further assay concerns bicuculline. The assay can be described thus: Anti-bicuculline action (bicuculline-induced tonic-extensile convulsions in mice). In kind it is in vivo, male dd mice. The settings on record: for ED50: Mus musculus, po, 5 min, read-out: Anti-bicuculline-convulsive action, ED50. As to the method:
2. Anti-bicuculline Action
Groups each of 4-14 male dd mice were used. Each test compound was administered orally and 60 minutes thereafter, bicuculline (0.6 mg/kg) was administered intravenously. The dose (ED50) required for 50% suppression of the occurrence of tonic-extensile convulsions within 5 minutes against the control group was determined.

Molecules are shown by their SMILES.

In general, ED50 refers to the dose at which the effect has come halfway, by size or by number of responders.

Consider `O=C1NC2CC1Cc1ccc(Cl)cc12` (stereo not drawn) [A, 8-chloro-1,4-methano-2,3,4,5-tetrahydro-1H-2-benzazepin-3-one], for which the ED50 is 62 mg/kg in the assay on picrotoxin and 95 mg/kg with bicuculline.
The matching figures for `CN1C(=O)C2Cc3ccc(Cl)cc3C1C2` (stereo not drawn) [B, 8-chloro-2-methyl-1,4-methano-2,3,4,5-tetrahydro-1H-2-benzazepin-3-one]: 66 mg/kg and 45 mg/kg.
The matching figures for `O=C1NC2CC1Cc1c(Cl)cc(Cl)cc12` (stereo not drawn) [C, 6,8-dichloro-1,4-methano-2,3,4,5-tetrahydro-1H-2-benzazepin-3-one]: 50 mg/kg and 73 mg/kg.
As for `O=C1NC2CC1Cc1ccccc12` (stereo not drawn) [D, 1,4Methano-2,3,4,5-tetrahydro-1H--2benzazepin-3-one], the results for the ED50 in the assay with picrotoxin and in the assay with bicuculline were 1100 mg/kg and more than 1000 mg/kg, respectively.
As for `COc1ccc2c(c1)C1CC(C2)C(=O)N1C` (stereo not drawn) [E, 8Methoxy-2-methyl-1,4-methano-2,3,4,5-tetrahydro-1H--2-benzazepin3-one], the ED50 in the assay with picrotoxin and in the assay with bicuculline was more than 100 mg/kg throughout. Moreover, the “Anti-picrotoxin-lethal action, percent in parentheses” value in the assay on picrotoxin (printed beside ED50 >100 mg/kg, p.o., mice, picrotoxin 5 mg/kg s.c.) is recorded as 0%. In addition, the “Anti-bicuculline-convulsive action, percent in parentheses” value in the assay on bicuculline (printed beside ED50 >100 mg/kg, p.o., mice, bicuculline 0.6 mg/kg i.v.) was 0%.
